*1 amine or outer side, *2 acyl side, *3 side chain or, on linkers, in order; H or OH if unused. Where a SMILES comes first, the peptide text is derived from it. Bridges are numbered along the chain shown (N, C = ends). [ ]: non-standard residue; d: D form. X1 = O=C([C@H](Cc1c[nH]c2c(-c3cccc(C(F)(F)F)c3)cccc12)N[*:1])[*:2]; Trp(7-Ph) = N[C@@H](Cc1c[nH]c2c(-c3ccccc3)cccc12)C(=O)O; Ala(quinolin-3-yl) = N[C@@H](Cc1cnc2ccccc2c1)C(=O)O; Abu(4-yl) = O=C([C@H](CC[*:3])N[*:1])[*:2]; 2Nal = N[C@@H](Cc1ccc2ccccc2c1)C(=O)O; AEF = NCCOc1ccc(C[C@H](N)C(=O)O)cc1; Pen = CC(C)(S)[C@H](N)C(=O)O; αMeK = C[C@](N)(CCCCN)C(=O)O; Thp = NC1(C(=O)O)CCOCC1
Assays:
[1] = tested on: Natural killer (NK) cells; type: cell-based, human
Excerpt: Where not shown, data was not yet determined.

[2] = Stability in simulated intestinal fluid (SIF); type: in vitro ADME; details: 37° C.; for SIF t1/2: 100 fold dilution of standard SIF concentration, 20 μM; for half-life at 20 μM: pH 6.8, 100 fold dilution of standard SIF concentration, read-out: SIF t1/2 (converted)
Method: Studies were carried out in simulated intestinal fluid (SIF) and simulated gastric fluid (SGF) to evaluate gastric stability of the peptide inhibitors of the present invention. In addition, studies were carried out to assess redox stability of the peptide inhibitors of the present invention.
SIF was prepared by adding 6.8 g of monobasic potassium phosphate and 10.0 g of pancreatin to 1.0 L of water. After dissolution, the pH was adjusted to 6.8 using NaOH. DMSO stocks (2 mM) were first prepared for the test compounds. Aliquots of the DMSO solutions were dosed into 6 individual tubes, each containing 0.5 mL of SIF, which is pre-warmed to 37° C. The final test compound concentration was 20 μM. The vials were kept in a benchtop Thermomixer® for the duration of the experiment. At each timepoint (0, 5, 10, 20, 40, 60, or 360 minutes or 24 hours), 1.0 mL of acetonitrile containing 1% formic acid was added to one vial to terminate the reaction. Samples were stored at 4° C. until the end of the experiment. After the final timepoint is sampled, the tubes were mixed and then centrifuged at 3,000 rpm for 10 minutes. Aliquots of the supernatant were removed, diluted 1:1 into distilled water containing internal standard, and analyzed by LCMS/MS. Percent remaining at each timepoint was calculated based on the peak area response ratio of test to compound to internal standard. Time 0 was set to 100%, and all later timepoints were calculated relative to time 0. Half-lives were calculated by fitting to a first-order exponential decay equation using Graphpad.

[3] = Stability in human fecal homogenate (anaerobic); type: in vitro ADME; details: pH 6.8, 20% human fecal homogenate, 37° C., up to 24 hours, read-out: t1/2: Human Feces anaerobic
Method: (§1) Studies were carried out in human or cynomolgus monkey fecal homogenate to evaluate gastrointestinal stability of the peptide inhibitors of the present invention.
(§2) Fecal homogenate ([…]) was prepared by adding 4 mL of growth medium (1 liter contains 2 g peptone water powder, 2 g yeast extract, 0.1 g NaCl, 0.04 g KH2PO4, 0.01 g CaCl2.6H2O, 0.01 g MgSO4.7H2O, 2 mL Tween 80, 0.5 g bile salts, 0.5 g L-cysteine HCl, 2 g NaHCO3, and 10 μL Vitamin K, pH adjusted to 6.8, and sterilized by filtration through a 0.22 μm filter) to every gram of feces (pooled freshly collected human or cynomolgus monkey feces). The suspension was vortexed to break up large clumps, and homogenized using a bead mill homogenizer. Centrifuged the homogenate at 2800×g for 15 min. The supernatant is taken out and used for incubations. DMSO stocks (10 mM) were first prepared for the test compounds. Incubations were performed in an anaerobic chamber conditioned at 37° C. Aliquots of the DMSO solutions were dosed into 1.0 mL aliquots of 20% fecal homogenate, which are pre-warmed to 37° C. The final test compound concentration was 20 μM. At each timepoint (0, 20 min, 1, 3, 6, or 24 hours), 100 μL aliquot of each incubation mixture is taken out and added to separate tubes containing 300 μL of 50% acetonitrile/50% methanol and an internal standard to terminate the reaction. Samples were taken out of the anaerobic chamber and stored at 4° C. until the end of the experiment. After the final timepoint is sampled, the tubes were mixed and then centrifuged at 3,000 rpm for 10 minutes. Aliquots of the supernatant were removed, diluted 1:1 into distilled water containing 0.1% formic acid, and analyzed by LC/MS/MS. Percent remaining at each timepoint was calculated based on the peak area response ratio of test to compound to internal standard. Time 0 was set to 100%, and all later timepoints were calculated relative to time 0. Half-lives were calculated by fitting to a first-order exponential decay equation using Graphpad or Excel.

[4] = Stability in cynomolgus monkey fecal homogenate (anaerobic); type: in vitro ADME; details: pH 6.8, 20% cynomolgus monkey fecal homogenate, 37° C., up to 24 hours, read-out: t1/2: Monkey Feces anaerobic (converted)
Method: as §1, §2

Stability in rat plasma = type: in vitro ADME; details: both sexes, SD rat plasma, EDTA, 37° C., up to 24 hours, read-out: t1/2: Rat Plasma EDTA
Method: Peptides of interest (20 μM) were incubated with pre-warmed rat plasma (SD rat, mixed gender pooled, EDTA, filtered through 0.22 μm, BioreclamationIVT) at 37° C. Aliquots were taken at various time points up to 24 hours (e.g. 0, 0.25, 1, 3, 6 and 24 hr), and immediately quenched with 4 volumes of organic solvent (acetonitrile/methanol (1:1) and 0.1% formic acid, containing 1 μM internal standard). Quenched samples were stored at 4° C. until the end of the experiment and centrifuged at 4,000 rpm for 10 minutes. The supernatant were diluted 1:1 with deionized water and analyzed using LC-MS. Percentage remaining at each time point was calculated based on the peak area ratio (analyte over internal standard) relative to the initial level at time zero. Half-lives were calculated by fitting to a first-order exponential decay equation using GraphPad.

[5] = 20% fecal homogenate (supernatant)

Row | Compound | IC50 [1] [nM] | SIF t1/2 [2] [h] | half-life at 20 μM [3, 5] [h] | half-life at 20 μM [4, 5] [h] | half-life at 20 μM (Stability in rat plasma) [h] | half-life at 20 μM [3] [h] | half-life at 20 μM [4] [h] | half-life at 20 μM (Stability in rat plasma; pooled) [h] | half-life at 20 μM [2] [h]
1 | CC(=O)NCCCC[C@@H]1NC(=O)[C@H](Cc2c[nH]c3c(-c4ccccc4)cccc23)NC(=O)[C@H]([C@@H](C)O)NC(=O)[C@H](CC(N)=O)NC(=O)[C@@H](NC(C)=O)C(C)(C)SSC(C)(C)[C@@H](C(=O)N[C@@H](Cc2ccc(OCCN)cc2)C(=O)N[C@@H](Cc2cnc3ccccc3c2)C(=O)N[C@@](C)(CCCCN)C(=O)N[C@@H](CCCCNC(C)=O)C(=O)N[C@@H](CC(N)=O)C(=O)N[C@H](CCCCN)C(N)=O)NC1=O [Peptide 14, Ac-[Pen]-N-T-[W(7-Ph)]-[Lys(Ac)]-[Pen]-Phe[4-(2-aminoethoxy)]-[3Quin]-[a-MeLys]-[Lys(Ac)]-N-[(D)Lys]-NH2] (Ac-[Pen]NT[Trp(7-Ph)]K(Ac)[Pen][AEF][Ala(quinolin-3-yl)][αMeK]K(Ac)N[dK]-NH2; disulfide 1-6) | 2.41 | 24 | > 24 | > 24 | > 24 |  |  |  | 
2 | CC(=O)NCCCC[C@@H]1NC(=O)[C@H](Cc2c[nH]c3c(-c4ccccc4)cccc23)NC(=O)[C@H]([C@@H](C)O)NC(=O)[C@H](CC(N)=O)NC(=O)[C@@H](NC(C)=O)C(C)(C)SSC(C)(C)[C@@H](C(=O)N[C@@H](Cc2ccc(OCCN)cc2)C(=O)N[C@@H](Cc2cnc3ccccc3c2)C(=O)NC2(C(=O)N[C@@H](CCC(=O)O)C(=O)N[C@@H](CC(N)=O)C(=O)N[C@H](CC(C)C)C(N)=O)CCOCC2)NC1=O [Peptide 15, Ac-[Pen]-N-T-[W(7-Ph)]-[Lys(Ac)]-[Pen]-Phe[4-(2-aminoethoxy)]-[3Quin]-[THP]-E-N-[(D)Leu]-NH2] (Ac-[Pen]NT[Trp(7-Ph)]K(Ac)[Pen][AEF][Ala(quinolin-3-yl)][Thp]EN[dL]-NH2; disulfide 1-6) | 2.44 | 24 | > 24 | > 24 | > 24 |  |  |  | 
3 | CC(=O)NCCCC[C@@H]1NC(=O)[C@H](Cc2c[nH]c3c(-c4cccc(C(F)(F)F)c4)cccc23)NC(=O)[C@H]([C@@H](C)O)NC(=O)[C@H](CC(N)=O)NC(=O)[C@@H](NC(C)=O)C(C)(C)SSC(C)(C)[C@@H](C(=O)N[C@@H](Cc2ccc(OCCN)cc2)C(=O)N[C@@H](Cc2ccc3ccccc3c2)C(=O)N[C@@](C)(CCCCN)C(=O)N[C@@H](CCCCNC(C)=O)C(=O)N[C@@H](CC(N)=O)C(=O)N[C@H](CCCCN)C(N)=O)NC1=O [Peptide 9, Ac-[Pen]-N-T-[W(7-(3-CF3Ph))]-[Lys(Ac)]-[Pen]-Phe[4-(2-aminoethoxy)]-[2-Nal]-[a-MeLys]-[Lys(Ac)]-N-[(D)Lys)]-NH2] (Ac-[Pen]NT[X1]K(Ac)[Pen][AEF][2Nal][αMeK]K(Ac)N[dK]-NH2; disulfide 1-6) | 9.3 | 24 |  |  |  | > 24 | > 24 | > 24 | 
4 | CC(=O)NCCCC[C@@H]1NC(=O)[C@H](Cc2c[nH]c3c(-c4ccccc4)cccc23)NC(=O)[C@H]([C@@H](C)O)NC(=O)[C@H](CC(N)=O)NC(=O)[C@@H](NC(C)=O)C(C)(C)SSC(C)(C)[C@@H](C(=O)N[C@@H](Cc2ccc(OCCN)cc2)C(=O)N[C@@H](Cc2cnc3ccccc3c2)C(=O)NC2(C(=O)N[C@@H](CCC(=O)O)C(=O)N[C@@H](CC(N)=O)C(=O)N[C@H](CCCCN)C(N)=O)CCOCC2)NC1=O [Peptide 13, Ac-[Pen]-N-T-[W(7-Ph)]-[Lys(Ac)]-[Pen]-Phe[4-(2-aminoethoxy)]-[3Quin]-[THP]-E-N-[(D)Lys]-NH2] (Ac-[Pen]NT[Trp(7-Ph)]K(Ac)[Pen][AEF][Ala(quinolin-3-yl)][Thp]EN[dK]-NH2; disulfide 1-6) | 1.55 | 24 | > 24 | > 24 | > 24 |  |  |  | 
5 | CC(=O)NCCCC[C@@H]1NC(=O)[C@H](Cc2c[nH]c3c(-c4ccccc4)cccc23)NC(=O)[C@H]([C@@H](C)O)NC(=O)[C@H](CCC(N)=O)NC(=O)[C@@H](NC(C)=O)CCSC[C@@H](C(=O)N[C@@H](Cc2ccc(OCCN)cc2)C(=O)N[C@@H](Cc2ccc3ccccc3c2)C(=O)N[C@@](C)(CCCCN)C(=O)N[C@@H](CCCCNC(C)=O)C(=O)N[C@@H](CC(N)=O)C(=O)N[C@H](CC(C)C)C(N)=O)NC1=O [Peptide 18, Ac-[Abu]-Q-T-[W(7-Ph)]-[Lys(Ac)]-[Cys]-Phe[4-(2-aminoethoxy)]-[2-Nal]-[a-MeLys]-[Lys(Ac)]-N-[(D)Leu]-NH2] (Ac-[Abu(4-yl)]QT[Trp(7-Ph)]K(Ac)C[AEF][2Nal][αMeK]K(Ac)N[dL]-NH2; thioether 1-6) | 6.28 |  |  |  |  | > 24 | > 24 | > 24 | 19.8
6 | CC(=O)NCCCC[C@@H]1NC(=O)[C@H](Cc2c[nH]c3c(-c4ccccc4)cccc23)NC(=O)[C@H]([C@@H](C)O)NC(=O)[C@H](CC(N)=O)NC(=O)[C@@H](NC(C)=O)C(C)(C)SSC(C)(C)[C@@H](C(=O)N[C@@H](Cc2ccc(OCCN)cc2)C(=O)N[C@@H](Cc2cnc3ccccc3c2)C(=O)N[C@@](C)(CCCCN)C(=O)N[C@@H](CCCCNC(C)=O)C(=O)N[C@@H](CC(N)=O)C(=O)N[C@H](CC(C)C)C(N)=O)NC1=O [Peptide 16, Ac-[Pen]-N-T-[W(7-Ph)]-[Lys(Ac)]-[Pen]-Phe[4-(2-aminoethoxy)]-[3Quin]-[a-MeLys]-[Lys(Ac)]-N-[(D)Leu]-NH2] (Ac-[Pen]NT[Trp(7-Ph)]K(Ac)[Pen][AEF][Ala(quinolin-3-yl)][αMeK]K(Ac)N[dL]-NH2; disulfide 1-6) | 2.9 | 24 | > 24 | > 24 | > 24 |  |  |  | 
7 | CC(=O)NCCCC[C@@H]1NC(=O)[C@H](Cc2c[nH]c3c(-c4ccccc4)cccc23)NC(=O)[C@H]([C@@H](C)O)NC(=O)[C@H](CC(N)=O)NC(=O)[C@@H](NC(C)=O)C(C)(C)SSC(C)(C)[C@@H](C(=O)N[C@@H](Cc2ccc(OCCN)cc2)C(=O)N[C@@H](Cc2ccc3ccccc3c2)C(=O)N[C@@](C)(CCCCN)C(=O)N[C@@H](CCCCNC(C)=O)C(=O)N[C@@H](CC(N)=O)C(=O)N[C@H](CC(C)C)C(N)=O)NC1=O [Peptide 1, Ac-[Pen]-N-T-[W(7-Ph)]-[Lys(Ac)]-[Pen]-Phe[4-(2-aminoethoxy)]-[2-Nal]-[a-MeLys]-[Lys(Ac)]-N-[(D)Leu]-NH2] | 4.3 |  |  |  |  | > 24 | > 24 | > 24 | 11.1

Reference: US20230129095A1, “PEPTIDE INHIBITORS OF INTERLEUKIN-23 RECEPTOR AND THEIR USE TO TREAT INFLAMMATORY DISEASES” (Protagonist Therapeutics, Inc., priority 2020, published 2023)
